Data as given in PMC8950706, “Influence of Substitutions in the Binding Motif of Proline-Rich Antimicrobial Peptide ARV-1502 on 70S Ribosome Binding and Antimicrobial Activity” (International Journal of Molecular Sciences, 2022).
Values after ≈ are worked out from the molar mass of the structure shown. Square brackets hold non-standard residues; d marks the D form. Peptide text beside a SMILES is read from it. Ac6c = NC1(C(=O)O)CCCCC1

Experiments:
E. coli BW25113 ∆sbmA = format: cell-based, Escherichia coli; conditions: 20 h, at least duplicates on two days, * once on two days, ** duplicate on one day; for Minimal Inhibitory Concentration, 25% MHB2, ∆sbmA: 25% MHB2, 37 °C; for Minimal Inhibitory Concentration, 33% TSB, ∆sbmA: 37 °C
Outline: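 Twofold peptide dilutions from 128 mg/L were made in 25% MHB2 or 33% TSB, with 4 h subcultured bacteria added to […]. After 20 h at 37 °C, OD595 was read; MIC is the lowest peptide concentration preventing visible growth.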

E. coli BW25113 [1] = assay: Checkerboard assay (FICI); format: cell-based, Escherichia coli; conditions: E. coli BW25113, 25% MHB2; synergy FICI ≤ 0.5, antagonism FICI ≥ 4; Table S6
Protocol: Synergy was tested in sterile 96-well plates (polystyrene F-bottom, Greiner Bio-One GmbH) using a total volume of 100 μL per well. […] Plates were incubated (37 °C, 20 h) and the optical density recorded at 595 nm using a microplate reader (Victor3, Perkin Elmer Inc., Waltham, MA, USA). The fractional inhibitory concentration index (FICI) was calculated by the equation FICI = […] = (A/MICA) + (B/MICB), where MICA/B are the MICs of an antimicrobial peptide (A) and one of the three tested antibiotics (B) alone and A and B are the MICs of combined antimicrobials. Synergy was defined as FICI ≤ 0.5, antagonism as FICI ≥ 4 and additive or indifference as FICI between 0.5 and 4.

E. coli 70S ribosome [2] = assay: Competitive fluorescence polarization assay against Cf-Api137 (Ki); format: binding; conditions: Supplementary Figure S3; read-out: Ki as competitor of Cf-Api137
Protocol: (§1) Dissociation and inhibitory constants were determined in black 384-well-plates (Greiner Bio-One GmbH, Frickenhausen, Germany) blocked with 0.5% (w/v) casein in phosphate buffered saline (PBS, 8.8 mmol/L Na2HPO4×12 H2O, 1.2 mmol/L KH2PO4, 0.3 mol/L NaCl, pH 7.4) containing 0.05% (w/v) Tween® 20 (PBST) overnight at 4 °C and washed three times with PBST.
(§2) Ribosome solution was added (10 µmol/L) and the plate was incubated after centrifugation (2 min, 500× g, Rotor S2096, Allegra^TM 21R, Beckmann Coulter) at 28 °C for 90 min. Cf-labeled peptide was added (10 µL; final concentration of 20 nmol/L; final ribosome concentration of 0.5 µmol/L) and the plate was centrifuged and incubated again (90 min, 28 °C, dark). Fluorescence polarization was recorded (λex = 485 nm, λem = 535 nm) on a […]^TM microplate reader. Kd and IC50 values were calculated by fitting the data with a variable slope parameter [y = min + (max − min)/(1 + (x/Kd) ^−Hill slope) ] using SigmaPlot 13 (Systat Software Inc., San Jose, CA, USA). The obtained IC50 values were used to calculate the Ki values.

E. coli 70S ribosome [3] = assay: Competitive fluorescence polarization assay against Cf-ARV-1502 (Ki); format: binding, E. coli BW25113; conditions: 20 nmol/L Cf-ARV-1502, 0.5 µmol/L ribosome, 28 °C, 90 min + 90 min, Ki calculated from IC50; for Ki: read-out: Ki (nmol/L), competition with Cf-ARV-1502
Protocol: E. coli 70S ribosomes were prepared using a previously described protocol that was slightly modified. Briefly, E. coli BW25113 was cultivated in Luria-Bertani (LB) medium and cells were harvested after reaching an optical density of ~4 at 600 nm by centrifugation (5000× g, 15 min, 4 °C, Rotor JLA 8.100, Avanti J-20 XP, Beckmann Coulter, Krefeld, Germany). The cell pellets were frozen and stored at −80 °C. Cells were resuspended in ribosome buffer (2 mL/g cells; 20 mmol/L HEPES-KOH, 6 mmol/L MgCl2, 30 mmol/L NH4Cl, 4 mmol/L 2-mercaptoethanol, pH 7.6). Lysozyme (0.25 g/L cell suspension) was added, and the mixture was incubated on ice for 30 min. Cells were disrupted using the bead mill homogenizer FastPrep-24™ 5G (40 s, 4 m/s, 6 cycles, MP Biomedicals Germany GmbH, Eschwege, Germany) and zirconia/silica beads (0.1 mm diameter). The lysate was centrifuged (1500× g, 5 min, 4 °C, Rotor S4180, Allegra 21R, Beckmann Coulter) and the supernatant was incubated with DNase (5 U/mL) on ice for 60 min.
as §1
Ribosome solution was added (10 µmol/L) and the plate was incubated after centrifugation (2 min, 500× g, Rotor S2096, Allegra^TM 21R, Beckmann Coulter) at 28 °C for 90 min. Cf-labeled peptide was added (10 µL; final concentration of 20 nmol/L; final ribosome concentration of 0.5 µmol/L) and the plate was centrifuged and incubated again (90 min, 28 °C, dark). […] Kd and IC50 values were calculated by fitting the data with a variable slope parameter [y = min + (max − min)/(1 + (x/Kd) ^−Hill slope) ] using SigmaPlot 13 (Systat Software Inc., San Jose, CA, USA). The obtained IC50 values were used to calculate the Ki values.

E. coli BW25113 [4] = assay: MIC, liquid broth micro dilution, wild type; format: cell-based, Escherichia coli; conditions: for MIC (µg/mL), Table 3: BW25113, 4 h; for Minimal Inhibitory Concentration, 25% MHB2, wt / Minimal Inhibitory Concentration, 33% TSB, wt: BW25113, 20 h
Protocol: MIC values were determined using a liquid broth micro dilution assay in sterile 96-well plates (polystyrene F-bottom, Greiner Bio-One GmbH) and a total volume of 100 μL per well. Aqueous peptide solutions (10 g/L) were serially twofold diluted in 25% Mueller-Hinton broth 2 (25% MBH2) or 33% tryptic soy broth (33% TSB) starting at a peptide concentration of 128 mg/L (50 μL/well). Overnight cultures of bacteria grown in 25% MHB2 (or 33% TSB) were diluted 30-fold in 25% MHB2 (or 33% TSB). After an incubation period of 4 h (37 °C, 200 rpm), cells were diluted to 1.5 × 10^7 cfu/mL, based on a McFarland test, and 50 μL were added to each well (final concentration of 7.5 × 10^6 […]). The plates were incubated (37 °C, 20 h) and the optical density was recorded at 595 nm using a microplate reader ([…]^TM, Beckmann Coulter). The MIC was defined as the lowest peptide concentration preventing visible bacterial growth.

E. coli 70S ribosome [5] = assay: Competitive fluorescence polarization assay against Cf-Onc112 (Ki); format: binding; conditions: Supplementary Figure S3; read-out: Ki as competitor of Cf-Onc112
Protocol: as §1, §2

| SMILES | Minimal Inhibitory Concentration, 25% MHB2, ∆sbmA (E. coli BW25113 ∆sbmA) [µg/mL] | Minimal Inhibitory Concentration, 33% TSB, ∆sbmA (E. coli BW25113 ∆sbmA) [µg/mL] | Checkerboard assay (FICI), peptide combined with chloramphenicol (E. coli BW25113 [1]) | Ki (E. coli 70S ribosome [2]) [µM] | Ki (E. coli 70S ribosome [3]) [nmol/L] | MIC (µg/mL), Table 3 (E. coli BW25113 [4]) [µg/mL] | Minimal Inhibitory Concentration, 25% MHB2, wt (E. coli BW25113 [4]) [µg/mL] | Minimal Inhibitory Concentration, 33% TSB, wt (E. coli BW25113 [4]) [µg/mL] | Ki (E. coli 70S ribosome [5]) [µM] | Ki (nmol/L), competition with Cf-ARV-1502 (E. coli 70S ribosome [3]) |
| --- | --- | --- | --- | --- | --- | --- | --- | --- | --- | --- |
| CC(C)C[C@H](NC(=O)[C@H](Cc1ccc(O)cc1)NC(=O)[C@@H]1CCCN1C(=O)[C@H](CCCNC(=N)N)NC(=O)[C@@H]1CCCN1C(=O)[C@H](CCCCN)NC(=O)[C@H](CC(=O)O)NC(=O)[C@@H]1CCCN1C(=O)[C@H](CCCNC(=N)N)NC(=O)C1(N)CCCCC1)C(=O)N1CCC[C@H]1C(=O)N[C@@H](CCCNC(=N)N)C(=O)N1CCC[C@H]1C(=O)N[C@@H](CCCNC(=N)N)C(=O)N1CCC[C@H]1C(=O)N1CCC[C@H]1C(=O)N[C@@H](CCCNC(=N)N)C(=O)N1CCC[C@H]1C(=O)N[C@H](C(=O)N[C@@H](CCCNC(=N)N)C(N)=O)C(C)C [ARV-1502] (H-[Ac6c]RPDKPRPYLPRPRPPRPVR-NH2) | 16 to 32 | 64 | did not indicate synergistic or antagonistic effects | 3.14 | 135 ± 10 | 8 (≈ 3.23 µM) | 8 | 16 | 0.12 |  |
| CC[C@H](C)[C@H](NC(=O)[C@@H](CCCNC(=N)N)NC(=O)[C@H](CCCNC(=N)N)NC(=O)[C@@H]1CCCN1C(=O)[C@@H]1CCCN1C(=O)[C@H](CCCNC(=N)N)NC(=O)[C@@H]1CCCN1C(=O)[C@H](CCCNC(=N)N)NC(=O)[C@@H]1CCCN1C(=O)[C@H](CC(C)C)NC(=O)[C@H](Cc1ccc(O)cc1)NC(=O)[C@@H]1CCCN1C(=O)[C@@H]1CCCN1C(=O)[C@H](CCCCN)NC(=O)[C@H](CC(=O)O)NC(=O)[C@@H](N)C(C)C)C(=O)N[C@@H](Cc1ccc(O)cc1)C(=O)N[C@@H](CC(N)=O)C(=O)N[C@H](CCCNC(=N)N)C(N)=O [Onc112, reference compound] (H-VDKPPYLPRPRPPR[dR]IYN[dR]-NH2; N-terminus and C-terminus assumed) | 16 to 32 | 64 |  |  | 124 ± 2 | 8 (≈ 3.35 µM) | 8 | 16 |  |  |
| CC(C)C[C@H](NC(=O)[C@H](Cc1ccc(O)cc1)NC(=O)[C@@H]1CCCN1C(=O)[C@H](CCCNC(=N)N)NC(=O)[C@@H]1CCCN1C(=O)[C@H](CCCCN)NC(=O)[C@H](CCCCN)NC(=O)[C@@H]1CCCN1C(=O)[C@H](CCCNC(=N)N)NC(=O)C1(N)CCCCC1)C(=O)N1CCC[C@H]1C(=O)N[C@@H](CCCNC(=N)N)C(=O)N1CCC[C@H]1C(=O)N[C@@H](CCCNC(=N)N)C(=O)N1CCC[C@H]1C(=O)N1CCC[C@H]1C(=O)N[C@@H](CCCNC(=N)N)C(=O)N1CCC[C@H]1C(=O)N[C@H](C(=O)N[C@@H](CCCNC(=N)N)C(N)=O)C(C)C [Peptide 2] (H-[Ac6c]RPKKPRPYLPRPRPPRPVR-NH2; N-terminus and C-terminus assumed) |  |  | Slightly higher FICIs |  |  | 4 (≈ 1.61 µM) | 4 | 32 to 64 |  | did not alter the Ki value |
